In ChEMBL document CHEMBL4477262, “Non-canonical modulators of nuclear receptors” (Bioorg Med Chem Lett, 2016):
pIC50, pKd, pKi: −log10 of the molar value. One block for each compound: values may come before it. Peptide text beside a SMILES is read from it.

Tests used:
[1] = target: T1, Peroxisome proliferator-activated receptor gamma (Homo sapiens, UniProt P37231); experiment: Displacement of 5-FAM-labeled NBM131 from human PPARgamma ligand binding domain expressed in human HepG2 cells by fluorescence polarization assay
T1 sequence (P37231 whole entry): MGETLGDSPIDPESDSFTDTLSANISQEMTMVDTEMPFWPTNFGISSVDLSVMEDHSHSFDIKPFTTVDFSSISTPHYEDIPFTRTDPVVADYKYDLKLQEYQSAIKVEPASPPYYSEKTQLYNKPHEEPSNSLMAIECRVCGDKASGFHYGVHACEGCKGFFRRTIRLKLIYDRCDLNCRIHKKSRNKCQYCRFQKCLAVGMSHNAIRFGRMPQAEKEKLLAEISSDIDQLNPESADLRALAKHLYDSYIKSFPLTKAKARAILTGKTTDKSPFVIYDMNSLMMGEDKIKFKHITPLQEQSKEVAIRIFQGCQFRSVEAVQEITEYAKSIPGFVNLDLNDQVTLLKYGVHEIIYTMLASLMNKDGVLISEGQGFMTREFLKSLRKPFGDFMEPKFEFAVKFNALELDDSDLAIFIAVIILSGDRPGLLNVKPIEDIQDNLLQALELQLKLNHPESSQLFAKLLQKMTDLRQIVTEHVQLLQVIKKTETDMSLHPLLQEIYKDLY

[2] = target: T2, Peroxisome proliferator-activated receptor alpha (Homo sapiens, UniProt Q07869); experiment: Displacement of 5-FAM-labeled NBM131 from human PPARalpha ligand binding domain expressed in human HepG2 cells by fluorescence polarization assay
T2 sequence (Q07869 whole entry): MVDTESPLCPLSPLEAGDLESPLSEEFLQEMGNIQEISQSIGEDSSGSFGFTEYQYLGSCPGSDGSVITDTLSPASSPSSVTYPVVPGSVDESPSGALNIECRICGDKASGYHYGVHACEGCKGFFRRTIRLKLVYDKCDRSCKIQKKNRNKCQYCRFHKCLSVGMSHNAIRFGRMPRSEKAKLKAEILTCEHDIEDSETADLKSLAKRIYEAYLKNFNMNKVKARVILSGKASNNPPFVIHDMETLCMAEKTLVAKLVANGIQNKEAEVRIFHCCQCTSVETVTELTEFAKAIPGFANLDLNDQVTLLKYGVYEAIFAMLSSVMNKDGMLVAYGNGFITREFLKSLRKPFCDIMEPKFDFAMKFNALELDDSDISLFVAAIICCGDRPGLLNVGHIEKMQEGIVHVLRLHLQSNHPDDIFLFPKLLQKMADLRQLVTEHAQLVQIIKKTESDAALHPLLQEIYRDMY

[3] = target: T3, Retinoic acid receptor RXR-alpha (Homo sapiens, UniProt P19793)
T3 sequence (P19793 whole entry): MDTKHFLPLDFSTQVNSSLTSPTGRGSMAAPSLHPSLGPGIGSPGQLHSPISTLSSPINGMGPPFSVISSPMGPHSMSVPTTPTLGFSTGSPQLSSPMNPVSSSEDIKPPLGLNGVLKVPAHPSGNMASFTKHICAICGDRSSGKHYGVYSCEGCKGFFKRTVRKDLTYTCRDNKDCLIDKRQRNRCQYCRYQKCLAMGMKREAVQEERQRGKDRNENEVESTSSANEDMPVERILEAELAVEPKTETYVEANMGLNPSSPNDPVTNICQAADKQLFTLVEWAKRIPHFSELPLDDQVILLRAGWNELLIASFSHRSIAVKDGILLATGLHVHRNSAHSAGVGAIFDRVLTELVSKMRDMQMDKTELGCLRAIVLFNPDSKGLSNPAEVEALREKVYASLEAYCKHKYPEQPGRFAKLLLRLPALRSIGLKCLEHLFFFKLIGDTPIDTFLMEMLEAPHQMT
Description: Binding affinity to human GST-tagged RXRalpha ligand binding domain (223 to 462 residues) expressed in Escherichia coli BL21 assessed as inhibition of 9-cis-RA-induced coactivator recruitment by TR-FRET assay

Estrogen receptor [4] = target: T4, Estrogen receptor (Homo sapiens, UniProt P03372); experiment: Displacement of europium-labeled SRC1 peptide from full length human recombinant ERalpha expressed in baculovirus expression system after 1.5 hrs in presence of estradiol-beta by TR-FRET assay
T4 sequence (P03372 whole entry): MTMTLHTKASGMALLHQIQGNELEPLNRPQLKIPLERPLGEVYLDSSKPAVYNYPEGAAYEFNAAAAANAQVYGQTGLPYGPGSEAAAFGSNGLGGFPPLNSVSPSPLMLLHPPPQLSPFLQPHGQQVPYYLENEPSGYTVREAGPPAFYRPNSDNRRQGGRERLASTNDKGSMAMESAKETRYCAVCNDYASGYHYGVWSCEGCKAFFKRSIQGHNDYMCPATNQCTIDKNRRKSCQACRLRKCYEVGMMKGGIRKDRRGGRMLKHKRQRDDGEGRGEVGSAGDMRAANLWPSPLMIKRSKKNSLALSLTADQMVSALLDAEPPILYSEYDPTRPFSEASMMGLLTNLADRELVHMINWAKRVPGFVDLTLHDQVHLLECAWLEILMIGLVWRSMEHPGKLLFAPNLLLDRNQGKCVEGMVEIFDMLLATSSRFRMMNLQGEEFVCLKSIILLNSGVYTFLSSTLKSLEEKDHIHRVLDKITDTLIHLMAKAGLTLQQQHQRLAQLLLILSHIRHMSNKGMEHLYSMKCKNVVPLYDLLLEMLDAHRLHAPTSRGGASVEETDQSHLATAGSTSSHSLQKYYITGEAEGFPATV

Estrogen receptor [5] = target: T4, Estrogen receptor; experiment: Displacement of fluorescein-labeled PGC1alpha peptide from human GST-tagged ERalpha LBD after 2 hrs in presence of estradiol-beta by TR-FRET assay
Androgen receptor = target: T5, Androgen receptor (Homo sapiens, UniProt P10275); experiment: Inhibition of AR transcriptional activity in human ARR2PB-eGFP expressing LNCaP cells after 3 days by fluorescence assay; format: cell-based
T5 sequence (P10275 whole entry): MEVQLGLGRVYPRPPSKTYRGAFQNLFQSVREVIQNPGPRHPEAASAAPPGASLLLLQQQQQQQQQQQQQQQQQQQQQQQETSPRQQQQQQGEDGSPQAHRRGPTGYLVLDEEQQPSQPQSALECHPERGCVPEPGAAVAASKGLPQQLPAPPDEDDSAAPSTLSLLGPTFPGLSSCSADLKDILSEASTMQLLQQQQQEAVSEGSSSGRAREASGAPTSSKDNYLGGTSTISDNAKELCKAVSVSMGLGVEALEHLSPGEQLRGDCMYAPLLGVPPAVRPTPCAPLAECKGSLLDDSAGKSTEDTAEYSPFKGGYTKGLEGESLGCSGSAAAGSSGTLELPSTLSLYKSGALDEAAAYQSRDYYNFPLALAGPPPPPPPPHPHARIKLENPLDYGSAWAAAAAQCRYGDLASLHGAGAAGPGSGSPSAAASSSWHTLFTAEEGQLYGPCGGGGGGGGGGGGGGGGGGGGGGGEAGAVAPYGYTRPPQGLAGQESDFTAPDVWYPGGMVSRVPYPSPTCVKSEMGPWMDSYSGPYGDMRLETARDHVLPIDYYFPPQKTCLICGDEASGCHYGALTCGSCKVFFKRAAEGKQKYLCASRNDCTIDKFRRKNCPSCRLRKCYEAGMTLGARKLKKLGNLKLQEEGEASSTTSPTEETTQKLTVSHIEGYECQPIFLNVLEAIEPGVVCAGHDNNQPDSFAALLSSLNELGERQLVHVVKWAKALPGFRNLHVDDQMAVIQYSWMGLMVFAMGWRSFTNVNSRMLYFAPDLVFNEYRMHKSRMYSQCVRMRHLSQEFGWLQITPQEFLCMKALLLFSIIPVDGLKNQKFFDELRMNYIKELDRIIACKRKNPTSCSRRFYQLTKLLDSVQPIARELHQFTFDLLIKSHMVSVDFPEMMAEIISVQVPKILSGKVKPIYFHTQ

Estrogen receptor [6] = target: T4, Estrogen receptor; experiment: Inhibition of full length human ERalpha expressed in human HEC1 cells in presence of estradiol by luciferase reporter gene assay; format: cell-based
Androgen receptor/PELP1 = Androgen receptor/PELP1 (Homo sapiens, UniProt P10275+Q8IZL8); experiment: Inhibition of full length AR/PELP1 (unknown origin) interaction expressed in human LNCaP cells preincubated for 2 hrs followed by DHT addition measured after 24 hrs by Western blot analysis; format: cell-based
Androgen receptor/PELP1, sequence (Q8IZL8 whole entry, one chain of several): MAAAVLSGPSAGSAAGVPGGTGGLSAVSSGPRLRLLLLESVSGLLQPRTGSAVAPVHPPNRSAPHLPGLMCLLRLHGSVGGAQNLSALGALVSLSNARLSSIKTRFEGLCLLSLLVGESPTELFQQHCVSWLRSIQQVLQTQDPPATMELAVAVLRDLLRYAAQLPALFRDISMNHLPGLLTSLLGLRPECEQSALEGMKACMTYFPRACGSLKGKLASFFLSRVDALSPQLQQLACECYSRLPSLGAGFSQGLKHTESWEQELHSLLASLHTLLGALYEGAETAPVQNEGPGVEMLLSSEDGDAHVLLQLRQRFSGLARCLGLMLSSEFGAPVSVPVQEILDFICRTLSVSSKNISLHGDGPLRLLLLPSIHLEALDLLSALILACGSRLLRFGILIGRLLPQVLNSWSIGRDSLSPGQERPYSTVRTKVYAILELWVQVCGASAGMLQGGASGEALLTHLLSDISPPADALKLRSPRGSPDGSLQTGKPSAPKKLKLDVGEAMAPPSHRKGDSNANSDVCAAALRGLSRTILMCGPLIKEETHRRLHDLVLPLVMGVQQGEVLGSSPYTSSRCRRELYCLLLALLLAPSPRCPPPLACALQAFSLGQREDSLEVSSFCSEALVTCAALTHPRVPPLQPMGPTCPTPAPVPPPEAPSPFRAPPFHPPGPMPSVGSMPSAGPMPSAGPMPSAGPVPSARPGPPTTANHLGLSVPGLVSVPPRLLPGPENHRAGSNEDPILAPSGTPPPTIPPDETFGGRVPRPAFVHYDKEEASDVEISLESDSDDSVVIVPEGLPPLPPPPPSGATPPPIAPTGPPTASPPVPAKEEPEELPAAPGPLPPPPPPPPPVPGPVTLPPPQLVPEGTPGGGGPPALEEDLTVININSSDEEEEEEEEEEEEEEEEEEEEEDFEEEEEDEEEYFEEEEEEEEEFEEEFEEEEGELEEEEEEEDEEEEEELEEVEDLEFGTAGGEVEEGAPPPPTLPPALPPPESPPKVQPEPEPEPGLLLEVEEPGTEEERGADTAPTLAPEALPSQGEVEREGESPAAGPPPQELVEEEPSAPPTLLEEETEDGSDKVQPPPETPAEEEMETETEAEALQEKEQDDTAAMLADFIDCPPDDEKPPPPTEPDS

pKd [1]: 7.10
pKd [2]: 7.10
Compound: CC(C)C[C@H](NC(=O)[C@H](Cc1ccccc1)NC(=O)[C@H](CCC(N)=O)NC(=O)[C@@H](NC(=O)[C@H](CC(C)C)NC(=O)[C@H](CC(C)C)NC(=O)[C@@H]1CCCN1C(=O)[C@H](Cc1cnc[nH]1)NC(=O)[C@H](CC(C)C)NC(=O)[C@H](CCC(N)=O)NC(=O)[C@@H](NC(=O)[C@@H]1CCCN1C(=O)[C@@H]1CCCN1C(=O)[C@@H](NC(=O)[C@@H](NC(=O)[C@H](C)N)[C@@H](C)O)[C@@H](C)O)[C@@H](C)O)[C@@H](C)O)C(=O)N[C@@H](CCCNC(=N)N)C(=O)N[C@H](C(=O)N[C@@H](CC(=O)O)C(=O)O)[C@@H](C)O (H-ATTPPTQLHPLLTQFLRTD-OH)

Compound: CC1=C(CCc2nnn[nH]2)c2cc(F)ccc2/C1=C\c1ccc(C(C)C)cc1
pIC50 [3]: 5.00

pKi (Estrogen receptor [4]): 7.60
Compound: CC[C@H](C)[C@@H]1NC(=O)[C@H](NC(=O)[C@@H](N)CCCCN)CSSC[C@@H](C(=O)N[C@@H](CCCNC(=N)N)C(=O)N[C@@H](CC(C)C)C(=O)N[C@@H](CC(C)C)C(=O)N[C@@H](CCC(N)=O)C(=O)O)NC(=O)[C@H](CC(C)C)NC1=O

pIC50 (Estrogen receptor [5]): 5.53
Compound: CCOc1cc(Br)cc(CNNC(=O)c2ccc3c(c2)OCCO3)c1O

pIC50 (Androgen receptor): 6.51
Compound: c1ccc2c(c1)CC(c1c[nH]c3ccccc13)N2 (stereo not given)

pIC50 (Estrogen receptor [6]): 5.20
Compound: CC(C)NC(=O)CSc1nc2ccc(NC(=O)CSc3cccc(Cl)c3)cc2s1

pIC50 (Estrogen receptor [6]): 5.64
Compound: O=C(CCCCn1c(=S)[nH]c2ccccc2c1=O)N1CCN(c2ccc(C(F)(F)F)cc2)CC1

pIC50 (Androgen receptor/PELP1): 7.40
Compound: COC(=O)c1ccc(NC(=O)c2ccc([N+](=O)[O-])c(OCC(C)C)c2)c(OCC(C)C)c1

pIC50 (Estrogen receptor [5]): 5.61
Compound: O=C1NN(c2ccc(Cl)c(Cl)c2)C(=O)C1Cc1c[nH]c2ccccc12 (stereo not given)
